The structures appear in SMILES notation.

The target in the first assay is T1, epithelial sodium channel (ENaC) (Mus musculus, UniProt Q61180+Q9WU38+Q9WU39).
T1 construct: Mouse kidney M-1 cells were cultivated in DMEM; endogenous in cells; host or cells: mouse kidney M-1 cells (cortical collecting duct line), dexamethasone-treated, on transwell filters
T1 sequence (Q61180 1-699): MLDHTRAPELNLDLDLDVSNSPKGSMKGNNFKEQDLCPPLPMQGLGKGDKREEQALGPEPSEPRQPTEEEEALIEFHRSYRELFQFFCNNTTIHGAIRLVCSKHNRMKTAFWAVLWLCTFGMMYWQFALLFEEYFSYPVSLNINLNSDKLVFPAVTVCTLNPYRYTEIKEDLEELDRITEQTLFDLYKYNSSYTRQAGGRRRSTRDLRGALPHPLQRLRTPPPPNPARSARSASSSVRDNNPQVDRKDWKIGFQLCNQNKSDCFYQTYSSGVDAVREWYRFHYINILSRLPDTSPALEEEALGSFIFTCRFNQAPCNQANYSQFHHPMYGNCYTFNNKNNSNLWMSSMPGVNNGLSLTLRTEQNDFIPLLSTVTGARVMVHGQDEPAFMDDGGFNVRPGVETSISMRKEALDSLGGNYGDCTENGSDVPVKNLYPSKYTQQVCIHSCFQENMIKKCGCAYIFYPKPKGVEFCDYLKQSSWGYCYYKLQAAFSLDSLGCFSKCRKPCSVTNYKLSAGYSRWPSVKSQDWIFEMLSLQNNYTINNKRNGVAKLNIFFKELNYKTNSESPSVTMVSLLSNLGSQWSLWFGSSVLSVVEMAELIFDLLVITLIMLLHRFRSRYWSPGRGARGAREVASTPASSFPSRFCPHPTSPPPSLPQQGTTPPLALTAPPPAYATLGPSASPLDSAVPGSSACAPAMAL
T1 sequence (Q9WU38 1-638): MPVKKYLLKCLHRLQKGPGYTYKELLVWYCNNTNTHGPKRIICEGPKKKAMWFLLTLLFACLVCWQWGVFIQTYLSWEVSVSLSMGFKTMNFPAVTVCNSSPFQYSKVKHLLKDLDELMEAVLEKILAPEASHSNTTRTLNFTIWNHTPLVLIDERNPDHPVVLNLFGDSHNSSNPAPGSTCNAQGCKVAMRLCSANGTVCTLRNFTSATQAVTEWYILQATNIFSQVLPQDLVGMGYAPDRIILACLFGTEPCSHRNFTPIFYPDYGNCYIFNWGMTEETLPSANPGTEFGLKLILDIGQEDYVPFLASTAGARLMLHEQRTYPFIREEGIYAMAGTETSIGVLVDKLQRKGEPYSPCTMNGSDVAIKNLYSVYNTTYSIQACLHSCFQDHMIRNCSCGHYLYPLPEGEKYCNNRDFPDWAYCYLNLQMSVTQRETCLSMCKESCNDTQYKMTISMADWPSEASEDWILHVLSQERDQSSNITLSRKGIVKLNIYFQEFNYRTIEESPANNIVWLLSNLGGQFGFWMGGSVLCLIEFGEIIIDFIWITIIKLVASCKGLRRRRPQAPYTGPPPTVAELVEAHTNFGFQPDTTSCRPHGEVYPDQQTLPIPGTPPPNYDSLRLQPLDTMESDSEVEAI
T1 sequence (Q9WU39 1-655): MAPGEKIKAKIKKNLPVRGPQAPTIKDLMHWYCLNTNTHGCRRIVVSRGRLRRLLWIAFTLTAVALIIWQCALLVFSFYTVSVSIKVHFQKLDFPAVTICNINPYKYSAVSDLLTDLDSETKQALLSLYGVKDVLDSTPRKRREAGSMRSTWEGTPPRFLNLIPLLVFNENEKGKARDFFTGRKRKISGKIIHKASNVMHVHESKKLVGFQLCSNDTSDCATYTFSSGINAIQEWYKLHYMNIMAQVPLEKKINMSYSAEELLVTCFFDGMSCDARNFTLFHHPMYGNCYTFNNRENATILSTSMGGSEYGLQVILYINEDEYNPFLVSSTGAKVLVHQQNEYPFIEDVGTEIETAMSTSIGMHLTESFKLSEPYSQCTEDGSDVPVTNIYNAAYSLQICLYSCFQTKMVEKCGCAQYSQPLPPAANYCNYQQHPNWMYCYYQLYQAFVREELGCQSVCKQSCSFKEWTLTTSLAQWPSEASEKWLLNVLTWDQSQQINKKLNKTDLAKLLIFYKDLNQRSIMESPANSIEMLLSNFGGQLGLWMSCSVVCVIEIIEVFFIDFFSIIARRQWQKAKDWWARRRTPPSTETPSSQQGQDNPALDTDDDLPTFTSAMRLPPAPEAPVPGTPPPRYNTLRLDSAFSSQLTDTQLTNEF
The experiment in a line: Ussing Chamber assay: inhibition of amiloride sensitive short circuit current (I_sc) in M-1 cells. In kind it is cell-based.
Settings: not given
On the procedure: Ussing Chamber: Mouse kidney M-1 cells were cultivated in DMEM containing 5% FCS and 5 μM dexamethasone for 10 to 12 days on polyester transwell filters. Filters were inserted into a teflon-coated well-plate which fit into the in-house ussing chamber system. Prior to measurement the medium of M-1 cells was replaced with Caco-2 transport buffer (Invitrogen, Germany). During measurements, the Ussing chamber temperature was kept at 37° C. Short circuit currents (I_sc) were measured in the voltage-clamp mode using an in-house built amplifier (Boehringer Ingelheim, Biberach) with the software package Lab View for data acquisition and analysis. The transepithelial electrical resistance (TEER) was determined by the application of voltage steps of ±5 mV every 5 sec. Compounds were administered at a final concentration of 3 μM or at increasing concentrations (e.g. 1-3-10 μM) to the apical solution. At the end of each experiment the amiloride sensitive I_SC was measured by adding 3 μM amiloride to the apical compartment. Results are expressed as inhibition in percent of the amiloride effect or as IC50.
With the example compounds given above, the following IC50 values were determined in the Ussing Chamber assay: […]
For orientation: IC50 means the concentration that inhibits the measured activity by half. For `CCOP(=O)(CN1CCC(NC(N)=NC(=O)c2nc(Cl)c(N)nc2N)CC1)OCC` [Example 4.16], 19 nM corresponded to half-maximal inhibition (IC50).

Still in this assay, the particulars now being: Ussing Chamber; mouse kidney M-1 cells on transwell filters; short circuit current; compound added to apical solution; 37° C.; read-out: IC50.
For the compound `N=C(NC(=O)c1nc(Cl)c(N)nc1N)NC1CCN(CC(=O)O)CC1` [Example 5.1], the IC50 was found to be 266 nM. For `CN(Cc1ccccc1)C(=O)CN1CCC(NC(N)=NC(=O)c2nc(Cl)c(N)nc2N)CC1` [Example 1.21], the IC50 is 18 nM. On the same count and under the same terms, with `NC(=NC(=O)c1nc(Cl)c(N)nc1N)NC1CCN(CC(=O)OCc2ccccc2)CC1` [Example 4.9] the figure was 6 nM; with `NC(=NC(=O)c1nc(Cl)c(N)nc1N)NC1CCN(CCCC(=O)O)CC1` [Example 5.3], 169 nM; with `COCCNC(=O)CN1CCC(NC(N)=NC(=O)c2nc(Cl)c(N)nc2N)CC1` [Example 6.12], 2 nM. Same read-out and setting: with `CCOC(=O)c1cccc(CCNC(=O)CN2CCC(NC(N)=NC(=O)c3nc(Cl)c(N)nc3N)CC2)c1` [Example 1.34] the figure was 4 nM; with `NC(=O)c1cccc(CNC(=O)CN2CCC(NC(N)=NC(=O)c3nc(Cl)c(N)nc3N)CC2)c1` [Example 6.9], 8 nM. The same measure, in the same setting: with `NC(=NC(=O)c1nc(Cl)c(N)nc1N)NC1CCN(CC(=O)Nc2ccc(S(=O)(=O)O)cc2)CC1` [Example 1.13] the figure was 23 nM. As for `NC(=O)c1ccc(CNC(=O)CN2CCC(NC(N)=NC(=O)c3nc(Cl)c(N)nc3N)CC2)cc1` [Example 6.8], the IC50 is 5 nM. Same read-out and setting: with `CCN(CC)CCOc1ccc(NC(=O)CN2CCC(NC(N)=NC(=O)c3nc(Cl)c(N)nc3N)CC2)cc1` [Example 1.12] the figure was 2 nM; with `CN1CCN(c2cccc(CNC(=O)CN3CCC(NC(N)=NC(=O)c4nc(Cl)c(N)nc4N)CC3)c2)CC1` [Example 6.10], 3 nM; with `NC(=NC(=O)c1nc(Cl)c(N)nc1N)NC1CCN(CC(=O)NC2CCSCC2)CC1` [Example 1.31], 2 nM. Same read-out and setting: next, `CCOC(=O)CN1CCC(NC(N)=NC(=O)c2nc(Cl)c(N)nc2N)CC1` [Example 4.6]: 7 nM; `NC(=NC(=O)c1nc(Cl)c(N)nc1N)NC1CCN(CC(=O)NCCCn2ccnc2)CC1` [Example 1.24]: 7 nM.

For `CN(C)CCN(C)S(=O)(=O)c1ccc(NC(=O)CN2CCC(NC(N)=NC(=O)c3nc(Cl)c(N)nc3N)CC2)cc1` [Example 1.11], the IC50 is 1 nM. Consider `CCSCCN1CCC(NC(N)=NC(=O)c2nc(Cl)c(N)nc2N)CC1` [Example 4.2], for which the IC50 is 10 nM. On the same count and under the same terms, with `NC(=NC(=O)c1nc(Cl)c(N)nc1N)NC1CCN(CC(=O)NCc2ccccc2)CC1` [Example 1.23] the figure was 3 nM; with `CC(C)(C)NC(=O)CN1CCC(NC(N)=NC(=O)c2nc(Cl)c(N)nc2N)CC1` [Example 4.22], 4 nM; with `CCCCOC(=O)CN1CCC(NC(N)=NC(=O)c2nc(Cl)c(N)nc2N)CC1` [Example 4.10], 4 nM. Same read-out and setting: with `Cc1ccc(CNC(=O)CN2CCC(NC(N)=NC(=O)c3nc(Cl)c(N)nc3N)CC2)o1` [Example 1.27] the figure was 4 nM. Still for that read-out and setting: next, `CCN(CC)C(=O)CN1CCC(NC(N)=NC(=O)c2nc(Cl)c(N)nc2N)CC1` [Example 4.5]: 36 nM.

Regarding `CCSCCNC(=O)CN1CCC(NC(N)=NC(=O)c2nc(Cl)c(N)nc2N)CC1` [Example 1.30], the IC50 was 2 nM.

Regarding `COC(=O)CN1CCC(NC(N)=NC(=O)c2nc(Cl)c(N)nc2N)CC1` [Example 4.11], the IC50 was determined as 27 nM.

On to `CN(C(=O)CN1CCC(NC(N)=NC(=O)c2nc(Cl)c(N)nc2N)CC1)c1ccccc1` [Example 1.22], for which the IC50 worked out at 22 nM. Same read-out and setting: next, `COC(=O)CCCN1CCC(NC(N)=NC(=O)c2nc(Cl)c(N)nc2N)CC1` [Example 4.8]: 27 nM; `CN(C)CCNC(=O)c1ccccc1NC(=O)CN1CCC(NC(=N)NC(=O)c2nc(Cl)c(N)nc2N)CC1` [Example 3.1]: 19 nM. In the case of `NC(=NC(=O)c1nc(Cl)c(N)nc1N)NC1CCN(CC(=O)NC2CN3CCC2CC3)CC1` (stereo not shown) [Example 1.32], the IC50 worked out at 13 nM. Same read-out and setting: next, `COC(=O)c1ccccc1NC(=O)CN1CCC(NC(N)=NC(=O)c2nc(Cl)c(N)nc2N)CC1` [Example 1.18]: 0.3 nM; `NC(=NC(=O)c1nc(Cl)c(N)nc1N)NC1CCN(CC(=O)Nc2ccccc2C(=O)O)CC1` [Example 2.3]: 47 nM.

Turning to `NC(=NC(=O)c1nc(Cl)c(N)nc1N)NC1CCN(CC(=O)Nc2cccnc2)CC1` [Example 1.17], the IC50 was determined as 7 nM. Still for that read-out and setting: with `COC(=O)c1ccc(CNC(=O)CN2CCC(NC(N)=NC(=O)c3nc(Cl)c(N)nc3N)CC2)cc1` [Example 6.4] the figure was 3 nM.

Consider `NC(=NC(=O)c1nc(Cl)c(N)nc1N)NC1CCN(CC(=O)N2CCSCC2)CC1` [Example 4.15], for which the IC50 came to 12 nM. The same measure, in the same setting: next, `NC(=NC(=O)c1nc(Cl)c(N)nc1N)NC1CCN(CC(=O)N2CCC(C(=O)O)CC2)CC1` [Example 5.4]: 176 nM; `CN(C)CCN(c1ccc(NC(=O)CN2CCC(NC(N)=NC(=O)c3nc(Cl)c(N)nc3N)CC2)cc1)S(C)(=O)=O` [Example 1.14]: 1 nM; `NC(=NC(=O)c1nc(Cl)c(N)nc1N)NC1CCN(CCN2CCOCC2)CC1` [Example 4.7]: 30 nM. For the compound `NC(=O)c1ccc(NC(=O)CN2CCC(NC(N)=NC(=O)c3nc(Cl)c(N)nc3N)CC2)cc1` [Example 1.2], the IC50 was 2 nM. The same measure, in the same setting: with `COC(=O)c1cccc(NC(=O)CN2CCC(NC(N)=NC(=O)c3nc(Cl)c(N)nc3N)CC2)c1` [Example 1.19] the figure was 3 nM. Same read-out and setting: with `CCNC(=O)CN1CCC(NC(N)=NC(=O)c2nc(Cl)c(N)nc2N)CC1` [Example 1.33] the figure was 5 nM. Consider `NC(=NC(=O)c1nc(Cl)c(N)nc1N)NC1CCN(CC(=O)Nc2cccc(C(=O)O)c2)CC1` [Example 2.2], for which the IC50 was 31 nM. Take `N=C(NC(=O)c1nc(Cl)c(N)nc1N)NC1CCN(CC(=O)Nc2ccccc2)CC1` [Example 1.1]: the IC50 was determined as 2 nM. `NC(=NC(=O)c1nc(Cl)c(N)nc1N)NC1CCN(CC(=O)NCc2ccc(N3CCNC3=O)cc2)CC1` [Example 6.13]: the IC50 stood at 3 nM. Take `CN(C)CC(=O)N(C)c1ccc(NC(=O)CN2CCC(NC(N)=NC(=O)c3nc(Cl)c(N)nc3N)CC2)cc1` [Example 1.7]: the IC50 was 1 nM.

Source of the values: US9078909B2, “Tertiary amines, medicaments containing said amines, use thereof and processes for the preparation thereof” (Boehringer Ingelheim International GmbH, priority 2012, dated 2015).
